Among the data in patent US10000476B2, “Pyridone derivative, pharmaceutical containing the same and methods of use thereof” (KAKEN PHARMACEUTICAL CO., LTD., priority 2011, dated 2018) are IC50 values, retold here.

What all share (assay type): biochemical
For experiment [1], the target named is TACE (Homo sapiens (Human), UniProt P78536). As to the kind of experiment: TACE inhibition test (in vitro). Conditions: fluorescent synthetic substrate, 37° C., 1.5 hours. In a few lines:
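Recombinant enzyme (cDNA from THP-1 cells, expressed in mammalian or insect cells) with quenched substrate Nma-Leu-Ala-Gln-Ala-Val-Arg-Ser-Ser-Lys(Dnp)-D-Arg-NH2. Incubated 1.5 h at 37 °C; fluorescence read at ex 355/em 460 nm; IC50 from inhibition rate.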

Experiment [2] has as its target human MMP-3 (Homo sapiens (Human), UniProt P08254). As to the kind of experiment: MMP-3 inhibition test. Particulars: read-out: MMPs IC50 MMP-3. The protocol: (§1) MMP inhibition tests can be carried out, for example, using a fluorescent synthetic substrate based on the methods described in Bickett et al. (D. Mark Bickett et al., Anal. Biochem., 1993, 212, 58-64) and Nagase et al. (H. Nagase et al., J. Biol. Chem., 1994, 269, 20952-20957). The method for each MMP inhibition test is shown below.
90 μL (1.5 ng) of human MMP-3 (Calbiochem #444217) prepared with an assay buffer A was added to 90 μL of a 20 μM fluorescent substrate NFF-3 (MOCAc((7-methoxycoumarin-4-yl)acetyl)-Arg-Pro-Lys-Pro-Val-Glu-Nva-Trp-Arg-Lys(Dnp)-NH2, Peptide Institute Inc., #3168-v) (SEQ ID NO: 4) prepared with an assay buffer B, and reacted at 37° C. for 4 hours. Enzyme activity was then determined by measuring with a fluorescence intensity meter (Labsystems, Fluoroskan Ascent) at an excitation wavelength of 320 nm and a measurement wavelength of 405 nm.
(§2) From the enzyme activity in the presence or the absence of the test substance, the inhibition rate was determined, and the 50% inhibitiory concentration (IC50) of the test substance was calculated.

Experiment [3] concerns the target human MMP-13 (Homo sapiens (Human), UniProt P45452). The experiment can be described thus: MMP-13 inhibition test. Conditions: read-out: MMPs IC50 MMP-13. The protocol:
as §1
90 μL (18 ng) of human MMP-13 (Calbiochem # CC068) or 90 μL (130 ng) of human MMP-13 (Calbiochem #444287) was mixed with 10 μL of 10 mM APMA, and activated by reacting at 37° C. for 1 hour. 10 μL of the resultant enzyme solution was diluted to 90 μL with an assay buffer A. The mixture was added to 90 μL of a 20 μM fluorescent substrate (Dnp-Pro-Cha-Gly-Cys(Me)-His-Ala-Lys(Nma)-NH2) (SEQ ID NO: 2) prepared with an assay buffer B, and reacted at 37° C. for 4 hours. Enzyme activity was then determined by measuring with a fluorescence intensity meter (Labsystems, Fluoroskan Ascent) at an excitation wavelength of 355 nm and a measurement wavelength of 460 nm.
as §2

Experiment [4] concerns the target human MMP-2 (Homo sapiens (Human), UniProt P08253). As to the kind of experiment: MMP-2 inhibition test. Conditions: read-out: MMPs IC50 MMP-2. The procedure: as §1
90 μL (5 ng) of human MMP-2 (Calbiochem #444213) was mixed with 10 μL of 10 mM APMA, and activated by reacting at 37° C. for 1 hour. 10 μL of the resultant enzyme solution was diluted to 90 μL with an assay buffer A. The mixture was added to 90 μL of a 20 μM fluorescent substrate (MOCAc((7-methoxycoumarin-4-yl)acetyl)-Pro-Leu-Gly-Leu-A2pr(Dnp)-Ala-Arg-NH2, Peptide Institute Inc., #3163-v) (SEQ ID NO: 3) prepared with an assay buffer B, and reacted at 37° C. for 5 hours. Enzyme activity was then determined by measuring with a fluorescence intensity meter (Labsystems, Fluoroskan Ascent) at an excitation wavelength of 320 nm and a measurement wavelength of 405 nm.
as §2

For orientation: IC50 means the concentration that inhibits the measured activity by half.

Some results are limits rather than exact numbers.

Sequence of human MMP-3 (P08254 100-272): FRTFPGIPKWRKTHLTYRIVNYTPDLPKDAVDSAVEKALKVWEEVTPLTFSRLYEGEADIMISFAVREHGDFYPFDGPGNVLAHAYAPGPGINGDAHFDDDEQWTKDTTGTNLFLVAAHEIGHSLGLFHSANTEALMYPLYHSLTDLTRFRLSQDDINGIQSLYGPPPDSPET
Sequence of TACE (P78536 215-824): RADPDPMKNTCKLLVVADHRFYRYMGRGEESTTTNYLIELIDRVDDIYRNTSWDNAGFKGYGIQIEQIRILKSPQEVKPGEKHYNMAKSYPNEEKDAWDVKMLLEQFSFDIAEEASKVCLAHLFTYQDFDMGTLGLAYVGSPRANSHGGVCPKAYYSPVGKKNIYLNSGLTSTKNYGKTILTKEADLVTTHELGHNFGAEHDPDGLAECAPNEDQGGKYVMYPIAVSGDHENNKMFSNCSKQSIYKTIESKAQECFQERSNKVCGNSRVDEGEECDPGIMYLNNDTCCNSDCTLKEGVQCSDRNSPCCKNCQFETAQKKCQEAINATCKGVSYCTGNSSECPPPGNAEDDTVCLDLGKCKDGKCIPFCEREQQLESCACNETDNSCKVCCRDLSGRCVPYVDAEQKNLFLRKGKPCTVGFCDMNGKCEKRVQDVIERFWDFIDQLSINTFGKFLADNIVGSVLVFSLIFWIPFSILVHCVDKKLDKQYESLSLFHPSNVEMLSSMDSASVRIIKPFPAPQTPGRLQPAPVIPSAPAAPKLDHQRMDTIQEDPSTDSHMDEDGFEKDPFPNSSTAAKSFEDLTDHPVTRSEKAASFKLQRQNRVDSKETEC
Sequence of human MMP-2 (P08253 110-660): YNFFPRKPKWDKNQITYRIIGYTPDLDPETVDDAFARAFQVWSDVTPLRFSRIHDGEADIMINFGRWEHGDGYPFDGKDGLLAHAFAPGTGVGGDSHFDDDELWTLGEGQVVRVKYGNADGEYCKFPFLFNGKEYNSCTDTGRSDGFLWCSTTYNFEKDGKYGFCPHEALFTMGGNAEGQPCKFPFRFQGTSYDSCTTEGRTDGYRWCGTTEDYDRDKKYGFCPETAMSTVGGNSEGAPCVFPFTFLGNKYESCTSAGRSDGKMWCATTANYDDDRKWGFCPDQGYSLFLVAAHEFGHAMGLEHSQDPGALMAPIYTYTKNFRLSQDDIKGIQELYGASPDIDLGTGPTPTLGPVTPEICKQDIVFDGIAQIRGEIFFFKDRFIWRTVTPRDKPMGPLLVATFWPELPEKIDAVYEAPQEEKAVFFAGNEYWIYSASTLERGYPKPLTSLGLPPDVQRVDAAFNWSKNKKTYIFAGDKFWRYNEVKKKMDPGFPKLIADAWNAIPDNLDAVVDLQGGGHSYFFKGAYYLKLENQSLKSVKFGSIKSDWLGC

Turning to `Cc1cccn(CC2(c3ccc(Oc4ccccc4F)cc3)NC(=O)NC2=O)c1=O` (stereo not drawn) [Compound I-86], the IC50 was less than 0.1 µM in experiment [1], greater than 100 µM in experiment [2], greater than 100 µM in experiment [3] and 51 µM in experiment [4].
In the case of `Cc1cccn(CC2(c3ccc(Cc4ccc(F)cc4)cc3)NC(=O)NC2=O)c1=O` (stereo not drawn) [Compound I-41, 5-[4-(4-fluorobenzyl)phenyl]-5-[(3-methyl-2-oxopyridin-1(2H)-yl)methyl] imidazolidine-2,4-dione], the IC50 was less than 0.1 µM in experiment [1], greater than 100 µM in experiment [2], greater than 100 µM in experiment [3] and 69 µM in experiment [4].
With `Cc1cccn(CC2(c3ccc(Oc4ccccc4)cc3)NC(=O)NC2=O)c1=O` (stereo not drawn) [Compound I-9, 5-[(3-methyl-2-oxopyridin-1(2H)-yl)methyl]-5-(4-phenoxyphenyl)imidazolidine-2,4-dione], the IC50 in experiment [1] is less than 0.1 µM; in experiment [2], 74 µM; in experiment [3] it was greater than 100 µM; in experiment [4], 29 µM.
With `Cc1cccn(CC2(c3cccc(-c4cccnc4)c3)NC(=O)NC2=O)c1=O` (stereo not drawn) [Compound I-62], the IC50 in experiment [1] is less than 0.1 µM; in experiment [2], 39 µM; in experiment [3] it was greater than 100 µM; in experiment [4], 31 µM.
Turning to `Cc1cccn(CC2(c3ccc(Cc4ccccc4)cc3)NC(=O)NC2=O)c1=O` (stereo not drawn) [Compound I-40, 5-(4-benzylphenyl)-5-[(3-methyl-2-oxopyridin-1(2H)-yl)methyl]imidazolidine-2,4-dione], the IC50 in experiment [1] is less than 0.1 µM; in experiment [2], greater than 100 µM; in experiment [3], greater than 100 µM; in experiment [4], greater than 100 µM.
For the compound `Cc1cccn(CC2(c3ccc(OCc4ccccc4)cc3)NC(=O)NC2=O)c1=O` (stereo not drawn) [Compound I-64], the IC50 is less than 0.1 µM in experiment [1], greater than 100 µM in experiment [2], greater than 100 µM in experiment [3] and greater than 10 µM in experiment [4].
As to `Cc1cccn(CC2(c3ccc(F)c(F)c3)NC(=O)NC2=O)c1=O` (stereo not drawn) [Compound I-10, 5-(3,4-difluorophenyl)-5-[(3-methyl-2-oxopyridin-1(2H)-yl)methyl] imidazolidine-2,4-dione], the half-maximal inhibitory concentration (IC50) in experiment [1] is less than 0.1 µM; in experiment [2] it was greater than 100 µM; in experiment [3], greater than 100 µM; in experiment [4] it was greater than 100 µM.
`Cc1cccn(CC2(c3ccccc3)NC(=O)NC2=O)c1=O` (stereo not drawn) [Compound I-1, 5-[(3-methyl-2-oxopyridin-1(2H)-yl)methyl]-5-phenyl-imidazolidine-2,4-dione]: the IC50 in experiment [1] is less than 0.1 µM; in experiment [2], greater than 100 µM; in experiment [3], 45 µM; in experiment [4], greater than 100 µM.
As for `COc1ccc(Cl)cc1C1(Cn2cccc(C)c2=O)NC(=O)NC1=O` (stereo not drawn) [Compound I-27, 5-(5-chloro-2-methoxyphenyl)-5-[(3-methyl-2-oxopyridin-1(2H)-yl)methyl]imidazolidine-2,4-dione], the IC50 was less than 0.1 µM in experiment [1], 49 µM in experiment [2], greater than 100 µM in experiment [3] and 62 µM in experiment [4].
